Measured values from patent US8691851B2, “Lanthanide metal complexes useful in treating cancer” (National University of Singapore, priority 2009, dated 2014).

Assays:
[1] = target: T1, PPARγ (Homo sapiens, UniProt P37231); assay: 3×PPRE luciferase reporter, PPARγ activation in breast cancer cells; assay type: cell-based; set-up: endogenous in cells; host or cells: MDA-MB-231, T47D (breast cancer); settings: 0 to 20 μM, 18 hours
T1 sequence (P37231 1-505): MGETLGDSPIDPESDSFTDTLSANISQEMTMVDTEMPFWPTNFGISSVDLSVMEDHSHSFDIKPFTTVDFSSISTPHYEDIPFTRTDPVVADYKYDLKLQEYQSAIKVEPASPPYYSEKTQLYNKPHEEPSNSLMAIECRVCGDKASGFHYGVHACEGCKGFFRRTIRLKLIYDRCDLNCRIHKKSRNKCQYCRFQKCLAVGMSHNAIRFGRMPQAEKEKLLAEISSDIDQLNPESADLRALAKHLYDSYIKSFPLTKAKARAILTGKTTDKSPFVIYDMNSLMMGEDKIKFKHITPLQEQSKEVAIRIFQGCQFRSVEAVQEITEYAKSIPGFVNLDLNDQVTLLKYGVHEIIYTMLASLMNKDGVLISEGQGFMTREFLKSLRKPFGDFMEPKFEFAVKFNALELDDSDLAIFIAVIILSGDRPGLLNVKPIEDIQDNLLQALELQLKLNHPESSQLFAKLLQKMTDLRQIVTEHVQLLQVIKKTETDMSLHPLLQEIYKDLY
Excerpt: To determine if C19H24N3O5S5Pr activation of PPARγ is dependent on expression of PPARγ in breast cancer cells, breast cancer cells MDA-MB-231 and T47D were transiently co-transfected with a 3×PPRE luciferase plasmid and renilla plasmid for transfection efficiency.

[2] = tested on: PTEN and MnSOD mRNA; settings: SHEP-1 cells, 10 uM, 4 hr, 8 hr and 18 h
Experimental: This example illustrates the effect of C19H24N3O5S5Pr on the mRNA levels of PTEN and MnSOD in SHEP-1 cancer cells. mRNA levels of PTEN and MnSOD were assayed by real time PCR after treatment with 10 uM Pr-MPO for 4 hr, 8 hr and 18 h.

[3] = tested on: caspases; settings: cancer cells
[4] = tested on: PTEN, RhoB, MnSOD; settings: HCT-116 tumors, 100 μg or 200 μg per mouse, 21 days of treatment
Experimental: HCT-116 colorectal tumor cells were grafted onto nude mice. Tumor-bearing mice were then treated with solvent control or different concentrations of (100 μg, 200 μg) C19H24N3O5S5Pr. After 21 days of treatment, the mice were sacrificed, after which tumors were harvested and proteins extracted for Western Blot analysis.

[5] = tested on: PTEN, RhoB, MnSOD; settings: SHEP-1 and MDA-MB-231 cells, 5 μM and 10 μM, dose-dependent
Experimental: Whole cell lysates were prepared with RIPA lysis buffer containing 10 mM Tris-HCL pH7.4, 30 mM NaCl, 1 mM EDTA, 1% Nonidet P-40, supplemented with 1 mM Na3VO4, 1 μg/ml leupeptin, 1 μg/ml pepstatin A, 1 μg/ml aprotinin and 1 mM PMSF before use. Protein concentration was determined for each sample and equal amounts of protein were boiled for 5 min for other proteins, with 1×SDS sample buffer and resolved by 8% SDS-PAGE. Thereafter, proteins were transferred onto nitrocellulose membrane, blocked for 1 h at room temperature with 5% non-fat milk, and incubated overnight at 4° C. with the primary antibody. After probing with secondary antibody for 1 hr at 25° C., protein bands were detected by using the Supersignal West Pico Chemiluminescence (Pierce). β-actin antibody was used as a loading control.
Referring to FIGS. 14 and 15, SHEP-1 neuroblastoma cells and MDA-MB-231 breast cancer cells were treated with different concentrations of C19H24N3O5S5Pr at 5 μM and 10 μM for 4 hr, 8 hr, 18 hr, 241r, 48 hr and 72 hr. Whole cell extracts were prepared and protein expression was examined by Western Blot analysis. 70 μg of total protein was loaded per lane for each experiment. The levels of protein were determined by using specific primary antibody followed by peroxidise-conjugated secondary antibody and visualization by enhanced chemiluminescence.

[6] = target: T1, PPARγ; assay type: cell-based; set-up: endogenous in cells; host or cells: SHSY5Y, SHEP1 / SHEP-1 (neuroblastoma); settings: 18 hours
Experimental: To determine if C19H24N3O5S5Pr activates PPARγ, SHSY5Y and SHEP1 neuroblastoma cells were transiently co-transfected with a 3×PPRE luciferase plasmid and renilla plasmid for transfection efficiency. Forty eight hours following transfection, the cells were exposed to increased concentrations (0 to 10 μM) of 15d-PGJ2 and C19H24N3O5S5Pr for 18 hours. The fold increase in luciferase activity correlates with the PPARγ activity of the cell. PPARγ activity is determined by calculating the RLU/renilla/μg total protein.
To assess if C19H24N3O5S5Pr activation of PPARγ is dependent on expression of PPARγ neuroblastoma cells, neuroblastoma cells SHEP1 and SHSY5Y were transiently co-transfected with a 3×PPRE luciferase plasmid and renilla plasmid for transfection efficiency. Forty eight hours following transfection, cells were exposed to increased concentrations (0 to 20 μM) of C19H24N3O5S5Pr for 18 hours. PPARγ activity was calculated as luciferase RLU/renilla/μg total protein.

CS(C)=O.CS(C)=O.[O-][n+]1ccccc1[S-].[O-][n+]1ccccc1[S-].[O-][n+]1ccccc1[S-].[Pr+3] [C19H24N3O5S5Pr, praseodymium (2-mercaptopyridine N-oxide)(dimethylsulfoxide)]
PPARγ activation, MDA-MB-231 versus T47D cells [1]: activates PPARγ better in MDA-MB-231 cells, than in T47D cells
mRNA levels of PTEN and MnSOD [2]: also found at the mRNA level
caspase activation [3]: does not activate caspases
PTEN, RhoB and MnSOD protein expression in tumors [4]: regulated
MnSOD protein expression [5]: downregulated
PTEN protein expression [5]: upregulated
RhoB protein expression [5]: upregulated
PPARγ activation, SHEP1 versus SHSY5Y cells ([6]; 0 to 20 μM): activates PPARγ better in SHEP1 cells, than in SHSY5Y cells
PPARγ activation (luciferase RLU/renilla/μg total protein) ([6]; SHSY5Y and SHEP1 cells in 10% serum, 0 to 10 μM): significant activation of PPARγ
